Measured values: patent publication US8097624B2, “Cycloalkyl derivatives of 3-hydroxy-4-pyridinones” (Apotex Inc., priority 2006, dated 2012)

How the values were obtained:
[1] = Metal complexation constants, Ca system; type: binding
Description: (§1) In a typical experiment, the sample solution was prepared by the following method: Apo6619 (31.91 mg) was weighed into a 25-ml beaker followed by the addition of 0.1 M NaCl (18.9 ml). The mixture was sonicated for 10 minutes to give a clear colorless solution. Aluminum stock solution (atomic absorption standard, Aldrich, 971 μl, 3.59×10^−5 mole) was pipetted into the solution followed by the addition of 1.000 N NaOH (229 μl) to give pH 8.56. The molar ratio between the total Aluminum and the total Apo6619 was 1:4. For M^2+ metals, a molar ratio of 1:3 was used. Nitrogen was allowed to bubble through the solution. The mixture was allowed to equilibrate at 22° C. for 2 hours. 1.000 N Hydrochloric acid (264 μl) was then added to the solution to give pH 2.20. The solution was allowed to equilibrate at 22° C. for 1 hour.
(§2) The solution was titrated against 1.000 N NaOH at 22° C. to reach pH 11.0. For each addition of base, the solution was allowed to equilibrate until a constant pH reading was reached. The volume of the base added and the pH reading were then recorded for each measurement. 93 measurements were used in the experiment.
(§3) The data set of pH vs. base volume was analyzed using Hyperquad 2000. Given the model: L^−+H^+ ? LH (pKa1), LH+H^+ ? LH2^+ (pKa2), Al^3++L^− ? ^AlL^2+ (K1), AlL^2++L^− ? AlL2^+ (K2), AlL2^++L^− ? AlL3 (K3), and β3=K1K2K3, the stepwise formation constants for Al-Apo6619 system were optimized as log K1=12.6(2); log K2=9.2(1); log K3=8.4(1); log β3=30.2(2).
(§4) pM^n+ is defined as −log [M(H2O)m]^n+ at physiological conditions, i.e.: pH 7.4, a ligand concentration of 10 μM, and a metal concentration of 1 μM.
(§5) To calculate pM^n+ for a MLn system, βn and pKa values are needed (βn are the formation constants for M^n++n L^− ? MLn; pKa are the equilibrium constants for L^−+n H^+ ? LHn^(n−1)+). The pM^n+ can be calculated by using Hyss software (Hyperquad Stimulation and Speciation software: HYSS2© 2000 Protonic Sofware).

[2] = Metal complexation constants, Mn system; type: binding
Description: as §1, §2, §3, §4, §5

[3] = Metal complexation constants, Al system (potentiometric titration; pM by Hyss); type: binding; conditions: pH 7.4, ligand 10 μM, metal 1 μM
Description: as §1, with “1.000 N Hydrochloric acid (264 μl) was then added to the solution to give pH 2.20. The solution was allowed to equilibrate at 22° C. for 1 hour.” left out
The solution was titrated against 1.000 N NaOH at 22° C. to reach pH 11.0. For each addition of base, the solution was allowed to equilibrate until a constant pH reading was reached. The volume of the base added and the pH reading were then recorded for each measurement. […]
The data set of pH vs. base volume was analyzed using Hyperquad 2000. […]
as §5

[4] = Metal complexation constants, Mg system; type: binding
Description: as §1, §2, §3, §4, §5

[5] = Metal complexation constants, Zn system; type: binding
Description: as §1, §2, §3, §4, §5

[6] = Metal complexation constants, Cu system; type: binding
Description: as §1, §2, §3, §4, §5

[7] = Drug Metab. Dispo. 1992; cited from earlier work
[8] = pH 7.4, ligand 10 μM, metal 1 μM

## CNC(=O)c1c(O)c(=O)cc(C)n1C1CC1 [Apo6619, 1-Cyclopropyl-3-hydroxy-6-methyl-4-oxo-1,4-dihydro-pyridine-2-carboxylic Acid Methylamide]
[1]; log scale
  log K1 Ca(II): 3
  log K2 Ca(II): 2.1
  log β2 Ca(II): 5.1
[1]; [8]
  PM Ca(II): 6.0
[2]; log scale
  log K1 Mn(II): 5.1
  log K2 Mn(II): 4.3
  log β2 Mn(II): 9.4
[2]; [8]
  PM Mn(II): 6.0
[3]
  PM Al(III): 13.9
[4]; log scale
  log K1 Mg(II): 4.1
  log K2 Mg(II): 3.2
  log β2 Mg(II): 7.3
[4]; [8]
  PM Mg(II): 6.0
[5]; log scale
  log K1 Zn(II): 6.3
  log K2 Zn(II): 5.8
  log β2 Zn(II): 12.1
[5]; [8]
  PM Zn(II): 6.4
[6]; log scale
  log K1 Cu(II): 8.9
  log K2 Cu(II): 7.7
  log β2 Cu(II): 16.6
[6]; [8]
  PM Cu(II): 10

## Cc1c(O)c(=O)ccn1C [deferiprone, 1,2-dimethyl-3-hydroxy-4-pyridinone, reference compound]
[7]
  administered dose recovered in the urine as the non-chelating O-glucuronide: more than 85%
